Results published in patent US9676714B2, “Sulfonylindole derivatives and method for preparing the same” (Daewoong Pharmaceutical Co., Ltd., priority 2013, dated 2017).
pIC50: −log10 of the molar value. Counter-ions that a name gives are not always drawn.

These compounds were tested against T1, proton pump (H+/K+-ATPase) (Sus scrofa, UniProt P19156) (assay: Measurement of inhibitory effects on proton pump (H+/K+-ATPase) activities). Details: hog gastric vesicles, K+-specific H+/K+-ATPase activity, Tris-HCl buffer pH 7.4, 37° C. for 40 minutes, malachite green Pi readout.
T1 construct: Gastric vesicles were prepared from hog stomach via centrifugal separation; from tissue; host or cells: hog stomach (gastric vesicles, method of Rabon et al. 1988)
Format: biochemical
Summary of the method: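 Hog gastric vesicles in 60 mmol/l Tris-HCl pH 7.4 with 0.5% DMSO were treated with compounds at room temperature; reaction was started with 10 μl of 10 mmol/l ATP stock. Released Pi was read at 570 nm, K+-specific activity taken as the ±K+ difference. IC50 from 4-parameter logistic fit.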

T1 sequence (P19156 whole entry): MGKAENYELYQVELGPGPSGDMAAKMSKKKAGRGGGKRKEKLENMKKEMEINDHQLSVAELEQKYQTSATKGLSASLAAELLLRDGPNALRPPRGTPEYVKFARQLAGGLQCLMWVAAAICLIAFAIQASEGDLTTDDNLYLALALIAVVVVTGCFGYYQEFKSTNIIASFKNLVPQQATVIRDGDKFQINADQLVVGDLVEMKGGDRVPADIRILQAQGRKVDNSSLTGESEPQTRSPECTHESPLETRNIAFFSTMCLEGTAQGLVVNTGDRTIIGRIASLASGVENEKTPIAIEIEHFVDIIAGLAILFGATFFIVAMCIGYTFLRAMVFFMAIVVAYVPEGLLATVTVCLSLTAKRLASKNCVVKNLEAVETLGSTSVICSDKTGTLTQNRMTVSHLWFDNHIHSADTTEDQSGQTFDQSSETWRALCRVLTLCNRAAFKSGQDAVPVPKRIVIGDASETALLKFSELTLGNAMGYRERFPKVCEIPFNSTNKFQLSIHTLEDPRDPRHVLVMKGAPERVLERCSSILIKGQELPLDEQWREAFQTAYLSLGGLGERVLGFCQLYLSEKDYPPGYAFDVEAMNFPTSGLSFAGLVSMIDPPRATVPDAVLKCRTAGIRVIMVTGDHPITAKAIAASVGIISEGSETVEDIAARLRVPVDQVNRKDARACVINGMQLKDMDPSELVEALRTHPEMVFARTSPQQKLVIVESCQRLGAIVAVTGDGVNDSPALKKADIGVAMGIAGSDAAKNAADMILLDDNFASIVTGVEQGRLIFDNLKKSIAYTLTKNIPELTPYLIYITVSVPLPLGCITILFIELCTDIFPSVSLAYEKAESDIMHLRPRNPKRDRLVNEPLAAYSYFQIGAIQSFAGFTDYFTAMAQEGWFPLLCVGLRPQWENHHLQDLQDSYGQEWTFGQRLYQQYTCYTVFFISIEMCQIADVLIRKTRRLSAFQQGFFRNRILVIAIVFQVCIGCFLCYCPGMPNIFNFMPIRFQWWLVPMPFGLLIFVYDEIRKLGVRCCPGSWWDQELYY
T1 sequence (P18434 whole entry partner): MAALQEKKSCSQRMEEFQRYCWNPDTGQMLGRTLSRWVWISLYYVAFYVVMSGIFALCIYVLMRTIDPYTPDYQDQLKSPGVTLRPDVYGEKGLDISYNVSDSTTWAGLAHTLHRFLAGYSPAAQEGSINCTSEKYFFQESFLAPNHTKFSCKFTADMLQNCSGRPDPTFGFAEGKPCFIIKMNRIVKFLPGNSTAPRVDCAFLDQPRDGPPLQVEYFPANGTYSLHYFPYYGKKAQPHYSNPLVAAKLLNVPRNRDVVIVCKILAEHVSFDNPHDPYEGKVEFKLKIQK

Row | Structure (SMILES) | pIC50
1 | CNCc1cn(S(=O)(=O)c2cccc(OC(F)(F)F)c2)c2cc(Nc3ccc(OC(F)(F)F)cc3C)ccc12 [Example 200, N-(2-methyl-4-(trifluoromethoxy)phenyl)-3-((methylamino)methyl)-1-((3-(trifluoromethoxy)phenyl)sulfonyl)-1H-indol-6-amine hydrochloride] | 6.05
2 | CNCc1cn(S(=O)(=O)c2cccc(OC(F)(F)F)c2)c2cc(Nc3ccc(C)nc3Cl)ccc12 [Example 205, N-(2-chloro-6-methylpyridin-3-yl)-3-((methylamino)methyl)-1-((3-(trifluoromethoxy)phenyl)sulfonyl)-1H-indol-6-amine hydrochloride] | 5.76
3 | CNCc1cn(S(=O)(=O)c2ccc(OC(F)(F)F)cc2)c2cc(Nc3ccc(C)cc3F)ccc12 [Example 206, N-(2-fluoro-4-methylphenyl)-3-((methylamino)methyl)-1-((4-(trifluoromethoxy)phenyl)sulfonyl)-1H-indol-6-amine hydrochloride] | 5.59
4 | CNCc1cn(S(=O)(=O)c2ccc(OC(F)(F)F)cc2)c2cc(Nc3ccc(OC(F)(F)F)cc3C)ccc12 [Example 209, N-(2-methyl-4-(trifluoromethoxy)phenyl)-3-((methylamino)methyl)1-((4-(trifluoromethoxy)phenyl)sulfonyl)-1H-indol-6-amine hydrochloride] | 5.97
5 | CNCc1cn(S(=O)(=O)c2ccc(C(F)(F)F)cc2)c2cc(Nc3ccc(C)cc3Cl)ccc12 [Example 221, N-(2-chloro-4-methylphenyl)-3-((methylamino)methyl)-1-((4-(trifluoromethyl)phenyl)sulfonyl)-1H-indol-6-amine hydrochloride] | 5.80
6 | CNCc1cn(S(=O)(=O)c2ccccc2)c2cc(Nc3ccc(C)cc3F)ccc12 [Example 222, N-(2-fluoro-4-methylphenyl)-3-((methylamino)methyl)-1-(phenylsulfonyl)-1H-indol-6-amine hydrochloride] | 5.74
7 | CNCc1cn(S(=O)(=O)c2ccccc2C)c2cc(Nc3ccc(C)cc3F)ccc12 [Example 223, N-(2-fluoro-4-methylphenyl)-3-((methylamino)methyl)-1-(o-tolylsulfonyl)-1H-indol-6-amine hydrochloride] | 5.89
8 | CNCc1cn(S(=O)(=O)c2ccccc2F)c2cc(Nc3ccc(C)cc3F)ccc12 [Example 224, N-(2-fluoro-4-methylphenyl)-1-((2-fluorophenyl)sulfonyl)-3-((methylamino)methyl)-1H-indol-6-amine hydrochloride] | 5.48
9 | CNCc1cn(S(=O)(=O)c2ccccc2Cl)c2cc(Nc3ccc(C)cc3F)ccc12 [Example 225, 1-((2-chlorophenyl)sulfonyl)-N-(2-fluoro-4-methylphenyl)-3-((methylamino)methyl)-1H-indol-6-amine hydrochloride] | 5.69
10 | CNCc1cn(S(=O)(=O)c2cccc(C#N)c2)c2cc(Nc3ccc(C)cc3F)ccc12 [Example 227, 3-((6-((2-fluoro-4-methylphenyl)amino)-3-((methylamino)methyl)-1H-indol-1-yl)sulfonyl)benzonitrile hydrochloride] | 5.19
11 | CNCc1cn(S(=O)(=O)c2cccc(Br)c2)c2cc(Nc3ccc(C)cc3F)ccc12 [Example 228, 1-((3-bromophenyl)sulfonyl)-N-(2-fluoro-4-methylphenyl)-3-((methylamino)methyl)-1H-indol-6-amine hydrochloride] | 6.05
12 | CNCc1cn(S(=O)(=O)c2ccc(C)cc2)c2cc(Nc3ccc(C)cc3F)ccc12 [Example 229, N-(2-fluoro-4-methylphenyl)-3-((methylamino)methyl)-1-tosyl-1H-indol-6-amine hydrochloride] | 5.95
13 | CNCc1cn(S(=O)(=O)c2ccc(Cl)cc2)c2cc(Nc3ccc(C)cc3F)ccc12 [Example 230, 1-((4-chlorophenyl)sulfonyl)-N-(2-fluoro-4-methylphenyl)-3-((methylamino)methyl)-1H-indol-6-amine hydrochloride] | 6.04
14 | CNCc1cn(S(=O)(=O)c2ccc(C(C)(C)C)cc2)c2cc(Nc3ccc(C)cc3F)ccc12 [Example 231, 1-((4-(tert-butyl)phenyl)sulfonyl)-N-(2-fluoro-4-methylphenyl)-3-((methylamino)methyl)-1H-indol-6-amine hydrochloride] | 5.58
15 | CNCc1cn(S(=O)(=O)c2ccc(-c3ccccc3)cc2)c2cc(Nc3ccc(C)cc3F)ccc12 [Example 232, 1-([1,1′-biphenyl]-4-ylsulfonyl)-N-(2-fluoro-4-methylphenyl)-3-((methylamino)methyl)-1H-indol-6-amine hydrochloride] | 5.67
16 | CNCc1cn(S(=O)(=O)c2cccc3ccccc23)c2cc(Nc3ccc(C)cc3F)ccc12 [Example 233, N-(2-fluoro-4-methylphenyl)-3-((methylamino)methyl)-1-(naphthalen-1-ylsulfonyl)-1H-indol-6-amine hydrochloride] | 5.55
17 | CNCc1cn(S(=O)(=O)c2cccc(Cl)c2Cl)c2cc(Nc3ccc(C)cc3F)ccc12 [Example 234, 1-((2,3-dichlorophenyl)sulfonyl)-N-(2-fluoro-4-methylphenyl)-3-((methylamino)methyl)-1H-indol-6-amine hydrochloride] | 5.83
18 | CNCc1cn(S(=O)(=O)c2ccc(Cl)cc2Cl)c2cc(Nc3ccc(C)cc3F)ccc12 [Example 235, 1-((2,4-dichlorophenyl)sulfonyl)-N-(2-fluoro-4-methylphenyl)-3-((methylamino)methyl)-1H-indol-6-amine hydrochloride] | 5.54
19 | CNCc1cn(S(=O)(=O)c2cc(C)ccc2C)c2cc(Nc3ccc(C)cc3F)ccc12 [Example 236, 1-((2,5-dimethylphenyl)sulfonyl)-N-(2-fluoro-4-methylphenyl)-3-((methylamino)methyl)-1H-indol-6-amine hydrochloride] | 5.69
20 | CNCc1cn(S(=O)(=O)c2ccc(F)c(F)c2)c2cc(Nc3ccc(C)cc3F)ccc12 [Example 237, 1-((3,4-difluorophenyl)sulfonyl)-N-(2-fluoro-4-methylphenyl)-3-((methylamino)methyl)-1H-indol-6-amine hydrochloride] | 6.00
21 | CNCc1cn(S(=O)(=O)c2ccc(Cl)c(Cl)c2)c2cc(Nc3ccc(C)cc3F)ccc12 [Example 238, 1-((3,4-dichlorophenyl)sulfonyl)-N-(2-fluoro-4-methylphenyl)-3-((methylamino)methyl)-1H-indol-6-amine hydrochloride] | 5.59

The next compounds have a higher pIC50 than those just listed; values first:

Row | pIC50 | Structure (SMILES)
22 | 6.09 | CNCc1cn(S(=O)(=O)c2cncc(F)c2)c2cc(Nc3ccc(OC(F)(F)F)cc3Cl)ccc12 [Example 215, N-(2-chloro-4-(trifluoromethoxy)phenyl)-1-((5-fluoropyridin-3-yl)sulfonyl)-3-((methylamino)methyl)-1H-indol-6-amine hydrochloride]
23 | 6.18 | CNCc1cn(S(=O)(=O)c2cccc(OC(F)(F)F)c2)c2cc(Nc3ccc(OC(F)(F)F)cc3Cl)ccc12 [Example 201, N-(2-chloro-4-(trifluoromethoxy)phenyl)-3-((methylamino)methyl)-1-((3-(trifluoromethoxy)phenyl)sulfonyl)-1H-indol-6-amine hydrochloride]
24 | 6.24 | CNCc1cn(S(=O)(=O)c2cccc(OC(F)(F)F)c2)c2cc(Nc3ccc(OC(F)(F)F)cc3OC)ccc12 [Example 202, N-(2-methoxy-4-(trifluoromethoxy)phenyl)-3-((methylamino)methyl)-1-((3-(trifluoromethoxy)phenyl)sulfonyl)-1H-indol-6-amine hydrochloride]
25 | 6.26 | CNCc1cn(S(=O)(=O)c2ccc(OC(F)(F)F)cc2)c2cc(Nc3ccc(C)cc3Cl)ccc12 [Example 207, N-(2-chloro-4-methylphenyl)-3-((methylamino)methyl)-1-((4-(trifluoromethoxy)phenyl)sulfonyl)-1H-indol-6-amine hydrochloride]
26 | 6.30 | CNCc1cn(S(=O)(=O)c2cccc(OC(F)(F)F)c2)c2cc(Nc3ccc(C)nc3F)ccc12 [Example 204, N-(2-fluoro-6-methylpyridin-3-yl)-3-((methylamino)methyl)-1-((3-(trifluoromethoxy)phenyl)sulfonyl)-1H-indol-6-amine hydrochloride]
27 | 6.35 | CNCc1cn(S(=O)(=O)c2cccc(OC(F)(F)F)c2)c2cc(Nc3ccc(C)c(F)c3F)ccc12 [Example 203, N-(2,3-difluoro-4-methylphenyl)-3-((methylamino)methyl)-1-((3-(trifluoromethoxy)phenyl)sulfonyl)-1H-indol-6-amine hydrochloride]
28 | 6.47 | CNCc1cn(S(=O)(=O)c2cccc(OC(F)(F)F)c2)c2cc(Nc3ccc(OC)cc3F)ccc12 [Example 199, N-(2-fluoro-4-methoxyphenyl)-3-(methylamino)methyl)-1-((3-(trifluoromethoxy)phenyl)sulfonyl)-1H-indol-6-amine hydrochloride]
29 | 6.54 | CNCc1cn(S(=O)(=O)c2ccc(OC(F)F)cc2)c2cc(Nc3ccc(C)cc3Cl)ccc12 [Example 220, N-(2-chloro-4-methylphenyl)-1-((4-(difluoromethoxy)phenyl)sulfonyl)-3-((methylamino)methyl)-1H-indol-6-amine hydrochloride]
30 | 6.57 | CNCc1cn(S(=O)(=O)c2ccc(OC)cc2)c2cc(Nc3ccc(C)cc3Cl)ccc12 [Example 219, N-(2-chloro-4-methylphenyl)-1-((4-methoxyphenyl)sulfonyl)-3-((methylamino)methyl)-1H-indol-6-amine hydrochloride]
31 | 6.80 | CNCc1cn(S(=O)(=O)c2cccc(OC(F)(F)F)c2)c2cc(Nc3ccc(C(F)(F)F)cc3Cl)ccc12 [Example 198, N-(2-chloro-4-(trifluoromethyl)phenyl)-3-((methylamino)methyl)-1-((3-(trifluoromethoxy)phenyl)sulfonyl)-1H-indol-6-amine hydrochloride]
